{"source": "patent US9139795B2", "about": "“Biodegradable lubricant composition” (IDEMITSU KOSAN CO., LTD., priority 2009, dated 2015)", "key": {"Acid value (JIS K 2501)": {"assay": "Acid value (JIS K 2501)", "assay_type": "physicochemical", "settings": "base oil ester"}, "[1]": {"assay": "Kinematic viscosity (JIS K 2283)", "assay_type": "physicochemical", "settings": "base oil ester"}, "[2]": {"assay": "Saponification value (JIS K 2503)", "assay_type": "physicochemical", "settings": "base oil ester"}, "[3]": {"assay": "Biodegradability, modified MITI test method (OECD301C)", "settings": "base oil ester alone", "method": "A biodegradation rate was measured according to the modified MITI test method (OECD301C)."}}}
{"substance": "di(pentaerythritol)oleate [Ester E]", "values": [{"measurement": "Acid Value", "setting": "Acid value (JIS K 2501)", "value": 3.30, "unit": "mgKOH/g"}, {"measurement": "Viscosity @ 40° C.", "setting": "[1]", "value": 556.8, "unit": "mm^2/s"}, {"measurement": "Saponification Value", "setting": "[2]", "value": 172, "unit": "mgKOH/g"}]}
{"substance": "trimethylolpropane diisostearate [Ester G]", "values": [{"measurement": "Acid Value", "setting": "Acid value (JIS K 2501)", "value": 0.06, "unit": "mgKOH/g"}, {"measurement": "Viscosity @ 40° C.", "setting": "[1]", "value": 105.0, "unit": "mm^2/s"}, {"measurement": "Biodegradability", "setting": "[3]", "value": 65.0, "unit": "%"}, {"measurement": "Saponification Value", "setting": "[2]", "value": 176, "unit": "mgKOH/g"}]}
